Measured values as given in patent US20180169045A1, “AMINO ACID COMPOSITIONS AND METHODS FOR THE TREATMENT OF LIVER DISEASES” (AXCELLA HEALTH INC., priority 2016, published 2018).

Assays:
Type in all cases: cell-based
[1] = tested on: human primary hepatocytes; assay: MCP1/CCL2 secretion in primary human hepatocytes exposed to free fatty acids + TNFα (ELISA); conditions: primary human hepatocytes from two healthy donors, 24 h
Method: Hepatocyte lipotoxicity appears to be a central driver of hepatic cellular injury via oxidative stress and endoplasmic reticulum (ER) stress. The ability of amino acids to influence steatosis (lipid accumulation) and inflammation in hepatocytes was assessed using human primary hepatocytes (Lonza, TRL).
Primary hepatocytes lot nos. from two healthy human donors were seeded on day 0 at density of 6e04 cells in 96 well optical microplates (Thermofisher) in hepatocyte plating media (William's E medium (Gibco) supplemented with 10% heat-inactivated FBS (Atlanta Bio), 2 mM Glutamax (Gibco), 1×ITS plus (R&D systems), and 0.2% Primocin (InVivoGen) and incubated for 6 hours at 37° C., 5% CO2. After 6 hours, cells were washed twice with 150 ul William's E medium and incubated overnight at 37° C., 5% CO2 with serum-free hepatocytes culture media (Hepatocytes defined medium (Corning)) supplemented with 5 ug human recombinant EGF (Corning), 2 mM Glutamax (Gibco), and 1× Penicillin/Streptomycin. On day 1, cells were washed twice with 150 μL per well William's E medium (Gibco) and incubated for 24h in the hepatocyte culture media in the same conditions described above.
On day 2, cells were washed twice with 150 ul DPBS 1× (Gibco) and maintained in amino acid-free WEM (US Biologicals) containing a defined custom amino acid concentration based on the mean physiological concentrations in blood. The values are published in the Human Metabolome Database (Wishart D S, Tzur D, Knox C, et al., HMDB: the Human Metabolome Database. Nucleic Acids Res. 2007 January; 35(Database issue):D521-6. 17202168; which is hereby incorporated by reference in its entirety). This custom media is supplemented with 11 mM Glucose, 0.272 mM Sodium Pyruvate, and a dose curve of defined amino acid compositions (i.e., vehicle, LIVRQ+N-acetylcysteine, LIVRQ, RQ+N-acetylcysteine, N-acetylcysteine alone, LIV, or individually with L-Leucine, L-Isoleucine, L-Valine, L-Arginine, L-Glutamine, and L-Cysteine) at various ranges of concentrations. Cells were maintained in this defined media for 24 hours at 37° C., 5% CO2.
After pre-treatment, cells were exposed to free fatty acids (FFA) at 250 uM with a ratio of 2:1 (Oleate:Palmitate) supplemented with TNF-α (Thermofisher) at 1 ng/ml or vehicle. Cells were incubated with the FFAs mixture and the different amino acids combinations for 24 hours at 37° C., 5% CO2. After 24 hours incubation, media was removed for cytokine analysis and replaced by fresh media containing the same stimulus conditions and amino acid concentrations. Cells were incubated for an additional 48 hours for a total of 72 hours of FFA and TNFα stimulation.
Human CCL2 (MCP-1) was measured by ELISA (Human […] DuoSet ELISA, R&D Systems) at 1/5 or 1/10 dilution in 1× Reagent Diluent (Reagent Ancillary Kit 2, R&D Systems). Data were normalized to the specific per well cell density determined by nuclei count stained by Hoechst 3342 (Life technologies) in the fluorescence microscopy described below.

[2] = tested on: Primary human hepatic stellate cells; assay: TNFα-induced MCP-1 secretion in primary human hepatic stellate cells (ELISA); conditions: for MCP-1 chemokine secretion, in words: primary human hepatic stellate cells from two donors, 3 ng/mL TNFα, 12 h
Method: (§1) Primary human hepatic stellate cells were obtained from Samsara Sciences based on the following criteria for selecting donors: adult age (between 18 and 50 years), normal BMI (>18.5 and <25), and absence of confounding liver disease. Primary human hepatic stellate cells grown in Complete HSC Medium to ˜80% confluence in T75 or T150 flasks below passage 10 were seeded into sterile, collagen I coated, 96-well optical plastic microplates (ThermoScientific, 152036) at 4000 cells per well ([…]) and incubated for 6 hours at 37° C., 5% CO2 in a humidified incubator.
(§2) After 6 hours, plates were removed from the incubator and the medium gently pipetted off and washed once with 150 μL per well DPBS. The DPBS was removed and the pretreatment medium (±single amino acid dropout, 1×HMDB DMEM+3% dialyzed FBS+0.2% Primocin, ±supplemental amino acid dose; see experiment for medium composition) was applied to the cells at 150 μL per well. Plates were returned to the incubator overnight, ˜14-15 hours.
(§3) After overnight pretreatment, the medium was removed from the cells, and the same pretreatment medium, now supplemented with 3 ng/mL TNFα is applied. Each plate contained 3 ng/mL TNFα in 1× human plasma amino acid (HMDB or PAA) concentration medium, 0 ng/mL in 1×HMDB, and 3 ng/mL TNFα+50 nM Bengamide in 1×HMDB to serve as controls. Plates were incubated for 12 hours at 37° C., 5% CO2.
(§4) After 12 hour stimulus with TNFα, supernatant was removed and frozen at −80° C. in two separate aliquots. Plates were washed gently once with DPBS and 100 μL per well of 1×HMDB DMEM+3% dialyzed FBS+0.2% Primocin+10% CCK-8 viability reagent (Dojindo). Plates were incubated for 1 hour at 37° C., 5% CO2.
(§5) After 1 hour of incubation, viability was measured on the Synergy plate reader (Absorbance at 977 (test), 900 (reference), and 450 (CCK8) nm). Immediately, the medium was removed and the plates were fixed with 70 μL per well 4% paraformaldehyde in PBS at room temperature for 20 minutes, followed by two 150 μL PBS washes, and stored with 100 μL per well PBS at 4° C. until immunofluorescence staining.
(§6) Human CCL2/MCP1 and Human IL-6 were measured by ELISA (Human […] DuoSet ELISA, R&D Systems; Human IL-6 DuoSet ELISA, R&D Systems) at 1/5 and 1/20 dilution in 1× Reagent Diluent (Reagent Ancillary Kit 2, R&D Systems). Data were normalized to the specific per well cell density determined by Hoechst stained nuclei count.

[3] = tested on: Primary human hepatic stellate cells; assay: TNFα-induced IL-6 secretion in primary human hepatic stellate cells (ELISA); conditions: for IL-6 cytokine secretion, in words: primary human hepatic stellate cells from two donors, 3 ng/mL TNFα, 12 h
Method: as §1, §2, §3, §4, §5, §6

CC(C)[C@H](N)C(=O)O [Valine, L-Valine]
MCP1/CCL2 secretion, in words [1]: did not have an effect | Fold Change MCP1 Secretion Normalized Per Cell, Mean ([2]; donor 3, 4684 μM): 1.0630 | Fold Change MCP1 Secretion Normalized Per Cell, Mean ([2]; donor 3, 11710 μM): 1.0204 | Fold Change MCP1 Secretion Normalized Per Cell, Mean ([2]; donor 3, 23420 μM): 1.2651 | Fold Change MCP1 Secretion Normalized Per Cell, Mean ([2]; donor 4, 4684 μM): 1.0942 | Fold Change MCP1 Secretion Normalized Per Cell, Mean ([2]; donor 4, 11710 μM): 1.1544 | Fold Change MCP1 Secretion Normalized Per Cell, Mean ([2]; donor 4, 23420 μM): 1.1525 | MCP-1 chemokine secretion, in words [2]: no significant impact | Fold Change IL-6 Secretion Normalized Per Cell, Mean ([3]; donor 1, Conc. 4684 μM): 0.9790 | Fold Change IL-6 Secretion Normalized Per Cell, Mean ([3]; donor 1, Conc. 11710 μM): 0.9562 | Fold Change IL-6 Secretion Normalized Per Cell, Mean ([3]; donor 1, Conc. 23420 μM): 1.0404 | Fold Change IL-6 Secretion Normalized Per Cell, Mean ([3]; donor 2, Conc. 4684 μM): 1.0383 | Fold Change IL-6 Secretion Normalized Per Cell, Mean ([3]; donor 2, Conc. 11710 μM): 0.9218 | Fold Change IL-6 Secretion Normalized Per Cell, Mean ([3]; donor 2, Conc. 23420 μM): 0.9015 | IL-6 cytokine secretion, in words [3]: no significant effect

CC(C)C[C@H](N)C(=O)O [Leucine, L-Leucine]
MCP1/CCL2 secretion, in words [1]: did not have an effect | Fold Change MCP1 Secretion Normalized Per Cell, Mean ([2]; donor 3, 3054 μM): 1.1479 | Fold Change MCP1 Secretion Normalized Per Cell, Mean ([2]; donor 3, 7635 μM): 1.3054 | Fold Change MCP1 Secretion Normalized Per Cell, Mean ([2]; donor 3, 15270 μM): 1.1808 | Fold Change MCP1 Secretion Normalized Per Cell, Mean ([2]; donor 4, 3054 μM): 1.5342 | Fold Change MCP1 Secretion Normalized Per Cell, Mean ([2]; donor 4, 7635 μM): 1.7129 | Fold Change MCP1 Secretion Normalized Per Cell, Mean ([2]; donor 4, 15270 μM): 1.5745 | MCP-1 chemokine secretion, in words [2]: no significant impact | Fold Change IL-6 Secretion Normalized Per Cell, Mean ([3]; donor 1, Conc. 3054 μM): 1.1762 | Fold Change IL-6 Secretion Normalized Per Cell, Mean ([3]; donor 1, Conc. 7635 μM): 1.1215 | Fold Change IL-6 Secretion Normalized Per Cell, Mean ([3]; donor 1, Conc. 15270 μM): 1.0767 | Fold Change IL-6 Secretion Normalized Per Cell, Mean ([3]; donor 2, Conc. 3054 μM): 1.0011 | Fold Change IL-6 Secretion Normalized Per Cell, Mean ([3]; donor 2, Conc. 7635 μM): 0.9574 | Fold Change IL-6 Secretion Normalized Per Cell, Mean ([3]; donor 2, Conc. 15270 μM): 1.0183 | IL-6 cytokine secretion, in words [3]: no significant effect
